# Reference: patent US6452005B1, “JAK-3 inhibitors for treating allergic disorders” (Parker Hughes Institute, priority 1999, dated 2002)
# Legend:
# human JAK3 [1] = molecular target: T1, human JAK3 (Homo sapiens, UniProt P52333); assay: JAK3 kinase inhibition (Table 1 IC50, immune complex kinase assay); type: biochemical; conditions: Table 1; measured inhibition values for JAK3 kinase
# T1 construct: KL-2 EBV-transformed human lymphoblastoid B cells (native JAK3 kinase assays); endogenous in cells; host or cells: KL-2 EBV-transformed human lymphoblastoid B cell line
# T1 sequence (P52333 1-1124): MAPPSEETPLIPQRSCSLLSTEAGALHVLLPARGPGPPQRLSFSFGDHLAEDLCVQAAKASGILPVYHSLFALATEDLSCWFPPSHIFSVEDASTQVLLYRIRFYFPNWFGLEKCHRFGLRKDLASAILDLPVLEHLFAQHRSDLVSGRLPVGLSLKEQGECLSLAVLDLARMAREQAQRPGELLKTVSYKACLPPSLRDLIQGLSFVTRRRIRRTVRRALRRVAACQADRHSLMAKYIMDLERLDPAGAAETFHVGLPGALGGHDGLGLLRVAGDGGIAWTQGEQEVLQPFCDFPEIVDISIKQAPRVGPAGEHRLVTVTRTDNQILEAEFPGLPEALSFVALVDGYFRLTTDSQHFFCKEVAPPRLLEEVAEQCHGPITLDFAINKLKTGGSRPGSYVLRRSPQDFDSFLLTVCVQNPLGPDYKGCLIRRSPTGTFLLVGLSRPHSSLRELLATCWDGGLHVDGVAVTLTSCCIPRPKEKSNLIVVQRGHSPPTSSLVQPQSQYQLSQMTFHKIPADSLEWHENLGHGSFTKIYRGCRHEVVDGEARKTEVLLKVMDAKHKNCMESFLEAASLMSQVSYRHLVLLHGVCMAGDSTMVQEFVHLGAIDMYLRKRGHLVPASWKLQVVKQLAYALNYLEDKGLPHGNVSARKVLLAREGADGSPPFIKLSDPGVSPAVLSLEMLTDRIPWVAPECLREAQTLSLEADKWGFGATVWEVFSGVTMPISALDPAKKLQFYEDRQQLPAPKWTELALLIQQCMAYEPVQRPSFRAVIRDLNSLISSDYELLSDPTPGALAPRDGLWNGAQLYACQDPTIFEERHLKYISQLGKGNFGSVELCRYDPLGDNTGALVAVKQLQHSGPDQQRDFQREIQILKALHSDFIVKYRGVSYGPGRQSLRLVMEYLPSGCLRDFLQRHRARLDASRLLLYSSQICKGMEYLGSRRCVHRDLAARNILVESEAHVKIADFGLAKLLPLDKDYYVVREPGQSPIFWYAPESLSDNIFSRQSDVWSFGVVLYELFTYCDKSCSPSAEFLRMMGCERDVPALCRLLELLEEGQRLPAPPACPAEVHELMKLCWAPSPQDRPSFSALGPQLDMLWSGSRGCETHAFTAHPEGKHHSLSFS
# Procedure: Immune Complex Kinase Assays.
# (§1) KL-2 EBV-transformed human lymphoblastoid B cells (native JAK3 kinase assays) or insect ovary cells (recombinant JAK3 kinase assays) were lysed with NP-40 lysis buffer (50 mM Tris, pH 8, 150 mM NaCl, 5 mM EDTA, 1% NP-40, 100 μM sodium orthovanadate, 100 μM sodium molybdate, 8 μg/ml aprotinin, 5 μg/ml leupeptin, and 500 μM PMSF) and centrifuged 10 minutes at 13000×g to remove insoluble material. Samples were immunoprecipitated with antisera prepared against JAK3. The antisera were diluted and immune complexes collected by incubation with 15 μl protein A Sepharose. After 4 washes with NP-40 lysis buffer, the protein A Sepharose beads were washed once in kinase buffer (20 mM MOPS, pH 7.0, 10 mM MgCl2) and resuspended in the same buffer. Reactions were initiated by the addition of 25 μCi γ[^32P] ATP (5000 Ci/mMole) and unlabeled ATP to a final concentration of 5 μM. Reactions were terminated by boiling for 4 min in SDS sample buffer. Samples were run on 9.5% SDS polyacrylamide gels and labeled proteins will be detected by autoradiography. Following electrophoresis, kinase gels were dried onto Whatman 3M filter paper and subjected to phosphoimaging on a Molecular Imager (Bio-Rad, Hercules, Calif.) as well as autoradiography on film. For each drug concentration, a kinase activity index (KA) was determined by comparing the kinase activity in phosphorimager units (PIU) to that of the baseline sample. In some experiments, cold kinase assays were performed, as described (Uckun et. al., 1998, Clin. Cancer Res., 4:901-912).
# human JAK3 [2] = molecular target: T1, human JAK3; assay: Immune complex kinase assay, JAK3 immunoprecipitated from KL2 EBV-transformed lymphoblastoid B cell line; type: biochemical; conditions: JAK3 immunoprecipitated from KL2 cells
# Procedure: as §1, with “Following electrophoresis, kinase gels were dried onto Whatman 3M filter paper and subjected to phosphoimaging on a Molecular Imager (Bio-Rad, Hercules, Calif.) as well as autoradiography on film.” left out, “In some experiments, cold kinase assays were performed, as described (Uckun et. al., 1998, Clin. Cancer Res., 4:901-912).” left out
# recombinant JAK2 = recombinant JAK2 (Homo sapiens, UniProt O60674); assay: Immune complex kinase assay, recombinant JAK2; conditions: FIG. 6C & D
# recombinant JAK2, sequence (O60674 whole entry): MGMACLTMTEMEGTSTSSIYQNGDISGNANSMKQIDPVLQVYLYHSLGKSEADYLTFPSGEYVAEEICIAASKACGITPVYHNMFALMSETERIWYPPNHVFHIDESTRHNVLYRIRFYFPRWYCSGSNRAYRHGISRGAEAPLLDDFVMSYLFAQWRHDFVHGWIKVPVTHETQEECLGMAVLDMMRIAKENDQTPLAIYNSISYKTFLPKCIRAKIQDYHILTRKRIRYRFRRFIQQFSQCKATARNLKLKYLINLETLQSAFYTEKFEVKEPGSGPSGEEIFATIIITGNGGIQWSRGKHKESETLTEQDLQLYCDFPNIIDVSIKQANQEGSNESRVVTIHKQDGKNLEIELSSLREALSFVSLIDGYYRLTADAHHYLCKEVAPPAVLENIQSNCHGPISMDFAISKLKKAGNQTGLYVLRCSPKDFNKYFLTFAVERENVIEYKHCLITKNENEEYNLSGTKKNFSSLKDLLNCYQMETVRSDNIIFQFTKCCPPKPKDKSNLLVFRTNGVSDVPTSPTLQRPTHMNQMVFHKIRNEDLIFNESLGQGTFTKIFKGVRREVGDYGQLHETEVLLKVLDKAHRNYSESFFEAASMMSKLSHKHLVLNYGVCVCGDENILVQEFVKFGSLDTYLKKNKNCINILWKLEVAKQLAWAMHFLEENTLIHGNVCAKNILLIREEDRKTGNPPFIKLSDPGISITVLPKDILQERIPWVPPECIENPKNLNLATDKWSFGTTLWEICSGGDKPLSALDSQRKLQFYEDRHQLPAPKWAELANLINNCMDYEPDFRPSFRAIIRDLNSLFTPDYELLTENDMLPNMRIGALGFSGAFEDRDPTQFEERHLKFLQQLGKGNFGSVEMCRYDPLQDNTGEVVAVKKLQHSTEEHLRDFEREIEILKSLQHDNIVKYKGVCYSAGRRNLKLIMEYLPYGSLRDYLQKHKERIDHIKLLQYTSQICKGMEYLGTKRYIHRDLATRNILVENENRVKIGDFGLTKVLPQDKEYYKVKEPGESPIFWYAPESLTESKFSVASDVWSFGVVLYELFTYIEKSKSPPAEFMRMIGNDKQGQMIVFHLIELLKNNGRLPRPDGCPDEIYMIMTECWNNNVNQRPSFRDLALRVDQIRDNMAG
# Procedure: In FIGS. 6A-6D, JAK3, JAK1, and JAK2 were immunoprecipitated from Sf21 insect ovary cells transfected with the appropriate baculovirus expression vectors and treated with WHI-P131, then subjected to in vitro kinase assays as described in the Examples below. The enzymatic activity of JAKs was determined by measuring autophosphorylation in a 10 minute kinase assay, as described in the Examples below. The kinase activity (KA) levels were expressed as percentage of baseline activity (%CON).
# Immune Complex Kinase Assays. Sf21 (IPLB-SF21-AE) cells (Vassilev et. al., 1999, J. Biol. Chem,. 274:1646-1656) derived from the ovarian tissue of the fall armyworm Spodotera frugiperda, were obtained from Invitrogen and maintained at 26-28° C. in Grace's insect cell medium supplemented with 10% FBS and 1.0% antibiotic/antimycotic (GIBCO-BRL). Stock cells were maintained in suspension at 0.2-1.6×10^6/ml in 600 ml total culture volume in 1 L Bellco spinner flasks at 60-90 rpm. Cell viability was maintained at 95-100% as determined by trypan blue dye exclusion.
# Sf21 cells were infected with a baculovirus expression vector for BTK, SYK, JAK1, JAK2, or JAK3, as previously reported (Mahajan et. al., 1999, J. Biol. Chem., 274:1646-1656). […]
# LYN = molecular target: T2, LYN (Homo sapiens, UniProt P07948); assay: Immune complex kinase assay, LYN from NALM-6 cells; type: biochemical; conditions: concentrations as high as 350 μM
# T2 construct: LYN was immunoprecipitated from whole cell lysates of NALM-6 human leukemia cells; endogenous in cells; host or cells: NALM-6 human B-lineage ALL cells
# T2 sequence (P07948 whole entry): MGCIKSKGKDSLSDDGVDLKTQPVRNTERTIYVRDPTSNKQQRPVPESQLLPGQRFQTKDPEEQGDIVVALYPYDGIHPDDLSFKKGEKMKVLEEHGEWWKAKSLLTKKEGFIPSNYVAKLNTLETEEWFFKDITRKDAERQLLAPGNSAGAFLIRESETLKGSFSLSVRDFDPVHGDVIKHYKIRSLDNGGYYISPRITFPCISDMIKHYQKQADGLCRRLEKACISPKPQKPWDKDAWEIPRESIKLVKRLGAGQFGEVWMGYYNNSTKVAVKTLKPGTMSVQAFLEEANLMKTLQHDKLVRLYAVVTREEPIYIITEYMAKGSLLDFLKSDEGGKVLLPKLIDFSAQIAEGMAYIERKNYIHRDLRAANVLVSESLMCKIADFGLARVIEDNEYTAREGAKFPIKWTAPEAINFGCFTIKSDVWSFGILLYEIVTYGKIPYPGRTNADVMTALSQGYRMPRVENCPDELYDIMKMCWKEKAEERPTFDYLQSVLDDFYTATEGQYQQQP
structure (smiles),measurement,setting,value
"COc1cc2ncnc(Nc3ccc(O)cc3)c2cc1OC [WHI-P131, 4-(4′-Hydroxylphenyl)-amino-6,7-dimethoxyquinazoline]",IC50,human JAK3 [1],78 µM
same,IC50,human JAK3 [2],9.1 µM
same,inhibitory activity against recombinant JAK2,recombinant JAK2,did not exhibit any detectable inhibitory activity
same,effect on enzymatic activity of LYN,LYN,did not affect
